Test results reported in patent US4260606A, “3-Methyleneazetidine derivatives” (A. H. Robins Company, Inc., priority 1979, dated 1981).
Where “and” joins values, the source holds several entries; their conditions need not be identical. Equal entries are not always repeated. Where two headings read alike, the source gives them in different places.

System: Tetrabenazine-Induced Ptosis
Test: Blockade of Tetrabenazine-Induced Ptosis in Mice (anti-tetrabenazine test)
Assay type: in vivo, mice (ICR-DUB strain)
Details: for ED50: Mus musculus, ip, read-out: ED50 (95% Confidence Limits), blockade of tetrabenazine-induced ptosis
Protocol: Antidepressant agents block many of the behavioral and physiological effects of tetrabenazine and reserpine, such as motor depression, hypothermia, and ptosis. […] Thirty minutes later the presence or absence of complete eyelid closure (ptosis) is assessed in each animal. For compounds which produced blockage of ptosis in all animals, and ED50 value is obtained using a minimum of three geometrically spaced doses with five mice/dose.

[1] = mice, IP, 30 minutes prior to tetrabenazine 32 mg/kg IP, ptosis assessed thirty minutes later, probit analysis, 95% confidence limits

`CN(C)CCCN1c2ccccc2CCc2ccccc21` [imipramine] was tested, and the ED50 [1] was 0.3 mg/kg and the “ED50 (95% Confidence Limits), blockade of tetrabenazine-induced ptosis” value [1] was 0.4 (0.2-0.9) mg/kg IP and 0.5 (0.2-1.2) mg/kg IP.

With `CCOc1ccccc1OCC1CNCCO1` (stereo not drawn) [viloxazine] the ED50 was 1.5 mg/kg.
